Values quoted from earlier work, collected in patent publication US20070155664A1, “Parathyroid hormone (pth) containing pharmaceutical compositions for oral use” (Nycomed Danmark A/S, priority 2003, published 2007).

What was measured:
[1] = test system: postmenopausal women; details: calcium supplementation
[2] = test system: pre-menopausal women; details: 1200 mg calcium supplements daily, three menstrual cycles; placebo 48%

[Ca+2] [calcium]
oral administered dose absorbed (oral): 20-33%
absorption efficiency (young adult, on average): about 30%
reduced bone loss, on average [1]: about 1 % year
women with PMS related symptoms [2]: 30%
